The subject of one series is Oncorhynchus mykiss. The settings on record: acute; duration: 96 hours; mortality.
A further series deals with Tagia sp. The settings on record: chronic/long-term; reproduction.
The test system of the next series is Hypoaspis aculeifer. The settings on record: chronic/long-term; reproduction.
Another series relates to Pimephales promelas. The settings on record: chronic/long-term; duration: 28 days.
The test system of another series is Apis mellifera. The settings on record: acute, mortality.
Another series has as its system Colinus virginianus. The settings on record: acute, oral, mortality.
In a further series the test system is Coturnix japonica. The settings on record: reproduction developmental.
A further series concerns Bibionidae. The settings on record: chronic/long-term; duration: 23 days; reproduction.
Another series deals with Typhlodromus pyri. The series is described as follows: LR50; higher = less toxic. The settings on record: mortality.

Molecules are shown by their SMILES.

What is called LC50 is the concentration lethal to half of the exposed cells or organisms. The NOAEL is the highest tested level that showed no adverse finding. For `Cc1ccc(-c2c(Cl)nc(C#N)n2S(=O)(=O)N(C)C)cc1`, the median lethal concentration (LC50) with Oncorhynchus mykiss is above 0.107 mg/L. Further, the NOEC in the series with Tagia sp. stood at 2 mg/kg; in the series with Hypoaspis aculeifer, 18.7 mg/kg; with Pimephales promelas, 0.09 mg/L; with Bibionidae, 0.0117 mg/L. The LD50 in the series on Rattus norvegicus (acute, oral, mortality) was above 5000 mg/kg-day; in the series with Apis mellifera (dermal), 9.52 µg/piece; with Apis mellifera (oral, unspecified), above 31.8 µg/piece; in the series with Colinus virginianus (diet), above 1280 mg/kg-day; in the series on Colinus virginianus it was above 2000 mg/kg-day. Moreover, the NOAEL in the series with Rattus norvegicus (chronic, duration: 2 years, organ weight) was 17 mg/kg-day; in the series on Rattus norvegicus (reproduction developmental, body weight), 89 mg/kg-day; with Rattus norvegicus (subchronic, duration: 90 days, oral, organ weight) it was 29.5 mg/kg-day; in the series on Coturnix japonica, 151 mg/kg-day. Also, the LR50 in the series on Typhlodromus pyri (acute, duration: 10 days) was 256 g/ha; with Typhlodromus pyri (not reported), 80 g/ha.

The values are drawn from EPA's ToxValDB 9.5 (doi:10.2903/j.efsa.2020.6232).
